Test [1] concerns the target human Adenosine A1 receptor (Homo sapiens (Human), UniProt P30542). Description: Adenosine receptor TR-FRET binding assay (A1). Particulars: inhibition of binding of 100 nM CA200645, CHO cell membranes. In outline:
(§1)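 CHO membranes, Tb-labelled hA1/hA2a/hA2b/hA3; tracer CA200645 at 100 nM (A1, A2a, A3) or 30 nM (A2b); buffer with saponin, 1% DMSO, pluronic; 2 h RT. NSB with 10 μM XAC. Read TR-FRET (ex 337, em 620/665 nm); IC50 → Ki via Cheng–Prusoff.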
Background: Time-resolved FRET reads energy transfer from a long-lived donor to a nearby acceptor.

The test system of test [2] is human PBMCs. Description: CD3/CD28 stimulated IL-2 release NECA reversal assay in human PBMCs. It is filed as cell-based. Particulars: PBMC, 1 uM NECA, 24 hours, IL-2 in culture supernatant. Here is the method: Biological Example—CD3/CD28 Stimulated IL-2 Release NECA Reversal Assay in Human PBMCs
Blood is drawn from healthy volunteers using sodium citrate as the anticoagulant (0.3% final concentration). After centrifugation of the blood over Histopaque-1077, PBMCs are collected from the Histopaque/plasma interface and washed twice in PBS (300 g for 10 mins at room temp). Cells are plated at 50,000 cells/well in 150 μl RPMI/10% FCS in 96-well cell culture plates that have been precoated with 1 ug/ml CD3 antibody. 50 μl diluted compound mix is added to the cells, to obtain final concentrations of 1 ug/ml CD28 antibody, 1 uM NECA and 0.003-10 μM adenosine receptor antagonist. Assay plates are incubated for 24 hours at 37° C. in a humidified incubator. Culture supernatant is tested for IL-2 levels using the human IL-2 Tissue Culture Kit (Meso Scale Discovery). Data for dose-response curves is calculated as % inhibition with 100% inhibition defined from no agonist control wells (+CD3/28-NECA)

Test [3] has as its target human Adenosine A2b receptor (Homo sapiens (Human), UniProt P29275). Description: Adenosine receptor TR-FRET binding assay (A2b). Particulars: TR-FRET, inhibition of binding of 30 nM CA200645, CHO cell membranes. In short, it runs like this: as §1
Test [4] has as its system CD8+T cells in human whole blood. Kind of test: Measurement of pCREB in CD8+T cells in human whole blood. Particulars: 3 μM NECA, rolipram. The format is cell-based. Here is the method: Biological Example—Measurement of pCREB in CD8+T Cells in Human Whole Blood
Heparinised human whole blood was pre-incubated at 37° C. with serial dilutions of A2a antagonists for 20 min. and the phosphodiesterase inhibitor rolipram to amplify the pCREB response. The adenosine receptor agonist NECA is then added at a final concentration of 3 μM and following a 60 min incubation the blood is fixed and red blood cells lysed. White blood cells are isolated, permeabilized and stained with directly conjugated fluorescent antibodies to phospho-CREB (Alexa Fluor 488) and CD8 (Alexa Fluor 647) and the level of phospho-CREB in CD8+T cells is measured by FACS using a BD Accuri C6 Flow Cytometer.

Test [5] concerns the target human Adenosine A2a receptor (Homo sapiens (Human), UniProt P29274). Kind of test: Adenosine receptor TR-FRET binding assay (A2a). Particulars: inhibition of binding of 100 nM CA200645, CHO cell membranes. In short, it runs like this:
as §1

Test [6] concerns the target human Adenosine A3 receptor (Homo sapiens (Human), UniProt P0DMS8). Kind of test: Adenosine receptor TR-FRET binding assay (A3). Particulars: inhibition of binding of 100 nM CA200645, CHO cell membranes. In short, it runs like this: as §1

Sequence of human Adenosine A2a receptor (P29274 whole entry): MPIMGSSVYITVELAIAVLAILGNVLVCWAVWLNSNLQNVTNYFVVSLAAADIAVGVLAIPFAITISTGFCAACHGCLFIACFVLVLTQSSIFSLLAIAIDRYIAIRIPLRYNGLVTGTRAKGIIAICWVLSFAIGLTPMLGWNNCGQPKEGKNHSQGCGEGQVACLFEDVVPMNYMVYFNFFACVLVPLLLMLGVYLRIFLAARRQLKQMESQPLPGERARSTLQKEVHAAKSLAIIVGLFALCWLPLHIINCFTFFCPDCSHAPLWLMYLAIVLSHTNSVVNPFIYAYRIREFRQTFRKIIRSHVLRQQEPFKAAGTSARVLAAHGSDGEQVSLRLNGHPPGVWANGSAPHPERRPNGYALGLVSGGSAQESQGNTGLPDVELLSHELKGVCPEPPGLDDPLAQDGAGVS
Sequence of human Adenosine A2b receptor (P29275 whole entry): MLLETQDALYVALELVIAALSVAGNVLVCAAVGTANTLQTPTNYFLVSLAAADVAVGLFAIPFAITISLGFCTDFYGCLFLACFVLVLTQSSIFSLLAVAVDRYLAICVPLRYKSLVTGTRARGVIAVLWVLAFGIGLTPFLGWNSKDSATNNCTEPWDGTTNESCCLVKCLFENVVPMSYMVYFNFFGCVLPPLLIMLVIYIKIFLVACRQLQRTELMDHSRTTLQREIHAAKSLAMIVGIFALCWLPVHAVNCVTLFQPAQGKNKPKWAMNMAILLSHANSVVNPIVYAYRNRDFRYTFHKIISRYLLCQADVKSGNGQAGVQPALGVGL
Sequence of human Adenosine A3 receptor (P0DMS8 whole entry): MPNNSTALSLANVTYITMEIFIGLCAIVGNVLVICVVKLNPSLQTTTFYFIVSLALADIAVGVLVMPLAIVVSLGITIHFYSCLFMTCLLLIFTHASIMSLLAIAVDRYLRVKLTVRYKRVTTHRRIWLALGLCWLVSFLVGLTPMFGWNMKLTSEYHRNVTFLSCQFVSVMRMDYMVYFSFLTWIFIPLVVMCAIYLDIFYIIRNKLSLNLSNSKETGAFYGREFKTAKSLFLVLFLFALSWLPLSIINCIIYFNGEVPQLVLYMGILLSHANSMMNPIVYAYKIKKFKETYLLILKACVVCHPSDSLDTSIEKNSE
Sequence of human Adenosine A1 receptor (P30542 whole entry): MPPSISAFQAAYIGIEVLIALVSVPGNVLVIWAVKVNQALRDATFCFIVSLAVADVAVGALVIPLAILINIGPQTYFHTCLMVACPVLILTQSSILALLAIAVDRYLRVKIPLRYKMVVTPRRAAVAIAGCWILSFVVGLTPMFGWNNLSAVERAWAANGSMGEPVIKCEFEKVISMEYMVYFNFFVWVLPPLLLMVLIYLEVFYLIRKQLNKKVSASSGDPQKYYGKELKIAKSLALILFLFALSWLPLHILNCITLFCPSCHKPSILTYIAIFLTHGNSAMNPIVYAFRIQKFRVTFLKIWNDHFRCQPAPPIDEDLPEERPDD

For `Cc1cc(-c2sc(NC(=O)N3CCC4(CCNC4=O)CC3)nc2-c2cccc(C#N)c2)cc(C)n1` [Example 6.24, N-[4-(3-Cyanophenyl)-5-(2,6-dimethyl-4-pyridyl)thiazol-2-yl]-1-oxo-2,8-diazaspiro[4.5]decane-8-carboxamide], the inhibitory constant (Ki) came to 129 nM in test [1], 2.5 nM in test [3], 0.99 nM in test [5] and 224 nM in test [6]. Besides, the IC50 came to 4.7 nM in test [2] and 90 nM in test [4].
In the case of `Cc1cc(-c2sc(NC(=O)N3C[C@@H]4C[C@H]3CN4)nc2-c2cccc(C#N)c2)cc(Cl)n1` [Example 5.6, (1S,4S)-N-[5-(2-Chloro-6-methyl-4-pyridyl)-4-(3-cyanophenyl)thiazol-2-yl]-2,5-diazabicyclo[2.2.1]heptane-2-carboxamide], the Ki in test [1] came out at 22 nM; in test [3], 4.2 nM; in test [5], 2.13 nM; in test [6], 31 nM. The results for the IC50 in test [2] and in test [4] were 30.5 nM and 720 nM, respectively.
As to `Cc1cc(-c2sc(NC(=O)N3CCN(C)CC3)nc2-c2cccc(C#N)c2)cc(C)n1` [Example 4, N-[4-(3-Cyanophenyl)-5-(2,6-dimethyl-4-pyridyl)thiazol-2-yl]-4-methyl-piperazine-1-carboxamide], the Ki is 60 nM in test [1], 0.7 nM in test [3], 1.01 nM in test [5] and 1000 nM in test [6]. Also, the values for the IC50 in test [2] and in test [4] were 3.8 nM and 130 nM, respectively.
Regarding `Cc1cc(-c2sc(NC(=O)N3CCS(=N)(=O)CC3)nc2-c2cccc(C#N)c2)cc(C)n1` [Example 4.2, N-[4-(3-Cyanophenyl)-5-(2,6-dimethyl-4-pyridyl)thiazol-2-yl]-1-imino-1-oxo-1,4-thiazinane-4-carboxamide], the Ki came to 28 nM in test [1], 4.4 nM in test [3], 0.27 nM in test [5] and 881 nM in test [6]. Besides, the IC50 is 7.9 nM in test [2] and 90 nM in test [4].
On to `Cc1cc(-c2sc(NC(=O)N3CCC(C(C)(C)O)C3)nc2-c2cccc(C#N)c2)cc(Cl)n1` (stereo not drawn) [Example 2, N-[5-(2-Chloro-6-methyl-4-pyridyl)-4-(3-cyanophenyl)thiazol-2-yl]-3-(1-hydroxy-1-methyl-ethyl)pyrrolidine-1-carboxamide], for which the Ki came to 234 nM in test [1], 1 nM in test [3], 0.4 nM in test [5] and 849 nM in test [6]. For the same compound, the figures for the IC50 in test [2] and in test [4] were 2 nM and 280 nM, respectively.
Turning to `Cc1cc(-c2sc(NC(=O)N3CCC4(CC3)NC(=O)NC4=O)nc2-c2cccc(C#N)c2)cc(C)n1` [Example 4.20, N-[4-(3-Cyanophenyl)-5-(2,6-dimethyl-4-pyridyl)thiazol-2-yl]-2,4-dioxo-1,3,8-triazaspiro[4.5]decane-8-carboxamide], the Ki came to 161 nM in test [1], 2.6 nM in test [3], 1.5 nM in test [5] and 967 nM in test [6]. In addition, the IC50 in test [2] is 1.3 nM; in test [4], 130 nM.
For `Cc1cc(-c2sc(NC(=O)N3CC(C#N)(CO)C3)nc2-c2cccc(C#N)c2)cc(C)n1` [Example 6.64, 3-Cyano-N-[4-(3-cyanophenyl)-5-(2,6-dimethyl-4-pyridyl)thiazol-2-yl]-3-(hydroxymethyl)azetidine-1-carboxamide], the Ki in test [1] turned out to be 27 nM; in test [3], 1.4 nM; in test [5] it was 0.14 nM; in test [6] it was 235 nM. The half-inhibitory concentration (IC50) in test [2] turned out to be 1.1 nM; in test [4], 10 nM.
Take `Cc1cc(-c2sc(NC(=O)N3CCN[C@H](C)C3)nc2-c2cccc(C#N)c2)cc(C)n1` [Example 7.1, (3R)—N-[4-(3-Cyanophenyl)-5-(2,6-dimethyl-4-pyridyl)thiazol-2-yl]-3-methyl-piperazine-1-carboxamide]: the Ki in test [1] worked out at 47 nM; in test [3] it was 7.6 nM; in test [5], 0.99 nM; in test [6], 418 nM. The IC50 in test [2] is 20.5 nM; in test [4], 650 nM.
With `Cc1cc(-c2sc(NC(=O)N3CCN4C(=O)OCCC4C3)nc2-c2cccc(C#N)c2)cc(C)n1` (stereo not drawn) [Example 6.17, N-[4-(3-Cyanophenyl)-5-(2,6-dimethyl-4-pyridyl)thiazol-2-yl]-6-oxo-1,3,4,8,9,9a-hexahydropyrazino[1,2-c][1,3]oxazine-2-carboxamide], the Ki worked out at 35 nM in test [1], 6.5 nM in test [3], 0.46 nM in test [5] and 405 nM in test [6]. Further, the half-maximal inhibitory concentration (IC50) in test [2] worked out at 5.3 nM; in test [4] it was 70 nM.
Turning to `Cc1cc(-c2sc(NC(=O)N3CCC4(CCC(=O)NC4)CC3)nc2-c2cccc(C#N)c2)cc(C)n1` [Example 6.40, N-[4-(3-Cyanophenyl)-5-(2,6-dimethyl-4-pyridyl)thiazol-2-yl]-3-oxo-2,9-diazaspiro[5.5]undecane-9-carboxamide], the Ki in test [1] turned out to be 110 nM; in test [3], 4.6 nM; in test [5] it was 0.41 nM; in test [6], 330 nM. Moreover, the IC50 in test [2] worked out at 2.2 nM; in test [4] it was 80 nM.
With `Cc1cc(-c2sc(NC(=O)N3CC4(CCNC4=O)C3)nc2-c2cccc(C#N)c2)cc(C)n1` [Example 6.59, N-[4-(3-Cyanophenyl)-5-(2,6-dimethyl-4-pyridyl)thiazol-2-yl]-5-oxo-2,6-diazaspiro[3.4]octane-2-carboxamide], the inhibition constant (Ki) in test [1] turned out to be 128 nM; in test [3], 2.2 nM; in test [5] it was 1.47 nM; in test [6], 184 nM. For the same compound, the IC50 in test [2] came out at 5.9 nM; in test [4] it was 100 nM.
Regarding `Cc1cc(-c2sc(NC(=O)N3CCC(C#N)(CO)CC3)nc2-c2cccc(C#N)c2)cc(CO)n1` [Example 9.7], the Ki in test [1] is 68 nM; in test [3], 3.2 nM; in test [5], 0.42 nM; in test [6], 742 nM. Besides, the IC50 in test [2] was 1 nM; in test [4], 10 nM.
Regarding `Cc1cc(-c2sc(NC(=O)N3CC[S+]([O-])CC3)nc2-c2cccc(C#N)c2)c(F)c(C)n1` [Example 10, N-[4-(3-Cyanophenyl)-5-(3-fluoro-2,6-dimethyl-4-pyridyl)thiazol-2-yl]-1-oxo-1,4-thiazinane-4-carboxamide], the Ki in test [1] was 43 nM; in test [3], 1.4 nM; in test [5] it was 1.19 nM; in test [6] it was 283 nM. Moreover, the IC50 came to 24.7 nM in test [2] and 1060 nM in test [4].
Take `Cc1cc(-c2sc(NC(=O)N3CCOC[C@H]3CO)nc2-c2cccc(C#N)c2)cc(C)n1` [Example 6.88, (3R)-N-[4-(3-Cyanophenyl)-5-(2,6-dimethyl-4-pyridyl)thiazol-2-yl]-3-(hydroxymethyl)morpholine-4-carboxamide]: the Ki in test [1] was determined as 65 nM; in test [3], 8 nM; in test [5] it was 1.9 nM; in test [6], 385 nM. For the same compound, the IC50 in test [2] was 7.8 nM; in test [4], 480 nM.
Consider `Cc1cc(-c2sc(NC(=O)N3CCC(C)(O)CC3)nc2-c2cccc(C#N)c2)cc(Cl)n1` [Example 3.7], for which the Ki amounted to 14 nM in test [1], 1.1 nM in test [3], 0.2 nM in test [5] and 382 nM in test [6]. Besides, the IC50 in test [2] was determined as 3.3 nM; in test [4], 290 nM.
Regarding `Cc1cc(-c2sc(NC(=O)N3CCC4(CC3)CNC4=O)nc2-c2cccc(C#N)c2)cc(C)n1` [Example 6.20, N-[4-(3-Cyanophenyl)-5-(2,6-dimethyl-4-pyridyl)thiazol-2-yl]-3-oxo-2,7-diazaspiro[3.5]nonane-7-carboxamide], the inhibition constant (Ki) in test [1] worked out at 53 nM; in test [3], 1.9 nM; in test [5], 0.14 nM; in test [6] it was 287 nM. Besides, the IC50 in test [2] came out at 1.8 nM; in test [4] it was 20 nM.
Regarding `CC(=O)N1CCN(C(=O)Nc2nc(-c3cccc(C#N)c3)c(-c3cc(C)nc(C)c3)s2)CC1` [Example 4.17, 4-Acetyl-N-[4-(3-cyanophenyl)-5-(2,6-dimethyl-4-pyridyl)thiazol-2-yl]piperazine-1-carboxamide], the Ki in test [1] is 77 nM; in test [3], 2.8 nM; in test [5], 1.9 nM; in test [6], 293 nM. In addition, the results for the IC50 in test [2] and in test [4] were 8.5 nM and 370 nM, respectively.

Broadly, the Ki is the equilibrium dissociation constant of an inhibitor or competing ligand from its target. Broadly, the IC50 is the midpoint of a concentration-inhibition curve.

The record behind these values is patent US20230293517A1, “ANTAGONIST COMPOUNDS” (AdoRx Therapeutics Limited, priority 2020, published 2023).
